Patent US8618074B2, “GPCR enhanced neuroprotection to treat brain injury” (Board of Regents of the University of Texas System, priority 2007, dated 2013)

How the values were obtained:
[1] = tested on: HEK293 cells that were overexpressing type 1 muscarinic acetylcholine receptors (mAchR1s); experiment: Cell death induced by t-BuOOH or ceramide with IP3-gated Ca2+ release stimulation; assay type: cell-based, human; conditions: ACh 1 μM; t-BuOOH (100 μM, 3 hrs) or ceramide (40 μM, 12 hrs)
From the text: P2 purinoceptors are a class of cell surface receptors, subdivided into either the ligand-gated ionotropic receptors (P2X) or G-protein-coupled metabotropic receptors (P2Y)). We focused our work on the P2Y-Rs due to their strong coupling to Gq/11 signaling pathway in astrocytes. Activation of P2Y-receptors stimulates PLCB isoenzymes, increasing inositol triphosphate (IP3) formation and subsequent Ca^2+ mobilization from thapsigargin sensitive stores in the endoplasmic reticulum (ER). Thapsigargin is a specific inhibitor of the sarco-endoplasmic reticulum Ca^2+ ATPases (SERCAs). As mentioned above, IP3-mediated Ca^2+ release is efficiently sequestered by mitochondria, due to its physically close proximity the Ca^2+ channel pore. Increased mitochondrial Ca^2+ uptake via the Ca^2+ uniporter rapidly stimulates Ca^2+ sensitive dehydrogenases and subsequently, increases respiration and ATP production. […] Another important point to make with regard to mitochondrial Ca^2+ signaling is that high matrix Ca^2+ is generally thought to sensitize cells to cell death stimuli. During prolonged periods or with sufficiently high concentrations, matrix Ca^2+ induces opening of the mitochondrial permeability transition pore (MPT). Recent work has identified the mitochondrial targeted cyclophilin D as a key player in Ca^2+ stimulated cell death. […]

[2] = tested on: astrocytes; experiment: Fura-2 two-photon imaging of intracellular Ca2+ response; assay type: cell-based, mouse; conditions: for Ca2+ response: then IP3-BM
Protocol: Ca^2+ activity was imaged as previously described (Camacho and Lechleiter, 1995). In brief, cultured astrocytes were incubated with the fura-2 am (Molecular Probes, #F-1221) 30 min prior to the experiment. Images were acquired with two-photon excitation (800 nm) at the rate of 1.5 images/ sec. […] Images were analyzed with Image J and ANALYZE® software (the Mayo Foundation, Rochester, MN). The D-enantiomer of the 1P3-BM ester was synthesized by Stuart Conway in the Cambridge University Chemical Laboratory by using a modification of the protocol of Tsien and co-workers (Li et al., 1997).
The primary response of glial cells to extracellular ATP is an increase in intracellular Ca^2+. To investigate whether the protective effect of ATP could be initiated by a Ca^2+ response, we loaded cultures of astrocytes with the Ca^2+ indicator dye Fura-2 AM (10 μM for 30 minutes). Fura-2 fluorescence was imaged with 2-photon microscopy using 800 nm excitation. At this wavelength, fluorescence is primarily due to the Ca^2+ free form of fura-2. […] When young astrocyte cultures were exposed to extracellular ATP (10 μM for 10 minutes), the peak intracellular Ca^2+ (−ΔF/F) was increased to 0.46±0.02 (n=25, pooled from 2 experiments). […] We tested whether the ATP-induced Ca^2+ response could be attributed to the metabotropic pathway, since IP3 mediated Ca^2+ release can stimulate mitochondrial energy production as well as sensitize mitochondria to apoptotic stimuli. Astrocytes cultured from old mice were pretreated with Xestospongin C (XeC, 25 μM for 30 minutes), which is a competitive inhibitor of IP3 binding to the IP3R. […] This is consistent with other reports showing that activation of the ionotropic P2X receptor activation also increases Ca^2+ in cultured astrocytes. To determine whether the metabotropic pathway was involved with the protective effect of extracellular ATP, we subsequently exposed the XeC/ATP treated astrocytes to oxidative stress. As described above, the perfusate contained t-BuOOH (100 μM) and TMRE (200 nM) to monitor ΔΨ. Under these experimental conditions, the average time until ΔΨ collapse was reduced to 5.48±0.22 (n=23, pooled from 2 experiments) in young astrocytes (FIG. 1C) and to 4.02±0.18 h (n=19, pooled from 2 experiments) in old astrocytes (FIG. 2C). […] We concluded that the protective effect of ATP on astrocytes was mediated by P2Y-receptors (P2Y-Rs).

[3] = tested on: astrocytes; experiment: Time until mitochondrial membrane potential (ΔΨ, TMRE) collapse during t-BuOOH oxidative stress; assay type: cell-based, mouse; conditions: for time until ΔΨ collapse: then t-BuOOH; for average time until ΔΨ collapse: XeC 25 μM pretreatment + ATP 10 μM, then t-BuOOH 100 μM
Protocol: Primary cultures of astrocytes were prepared as previously published (Lin et al., 2005). C57BL/6 male mice were purchased from the National Institute of Aging and maintained in standard accredited housing conditions at the University of Texas Health Science Center Animal Facility. Animal protocols were approved by our Institutional Animal Care Use Committee. Astrocytes were cultured in DMEM F-12 media (Invitrogen, # 11039-021) supplemented with 2 mM glutamine, nonessential amino acids, 10% fetal calf serum, 100 U/ml penicillin/streptomycin (Cambrex BioScience Walkersville, #17-602E) and 1% fungizone (Invitrogen, #15290-018) at 37° C. in an atmosphere containing 5% CO2. The culture medium was changed every 3-5 days. Confluent cells were gently removed by a trypsin EDTA solution and re-plated on 35 mm glass bottom chambers (Bioptechs #04200415C) prior to imaging experiments 3-4 days later. Cells were maintained in plastic culture flasks until the final re-seeding of cells onto a glass bottom chamber and were passed up to 3 times for astrocyte only experiments. For co-culture experiments with neurons, primary astrocytes were plated directly onto corning transwell-clear permeable supports, which physically separates the two cell-types by ˜1 mm (# 07-200-170, Fisher scientific). Astrocytes were cultured in transwells until they were ˜70% confluent. Mouse cortical neurons (Cambrex Bio Science Walkersville Inc., # M-CX-300) were then cultured onto 6 well mat-tek glass bottom plates and maintained in Neurobasal Medium (Invitrogen, # 21103-049), 2 mM L-Glutamine (Cambrex BioScience Walkersville, #17-605E), 100 U/ml penicillin/streptomycin (Cambrex BioScience Walkersville, #17-602E) and B-27 with (Invitrogen, #17504-044) and without antioxidants (Invitrogen, #10889-038), which controls glia contamination to less than 0.5%. The transwell supports with cultured astrocytes were placed in the neuron seeded glass bottom chambers for four days before imaging and both cell types were then maintained in neuronal media. For neuron only experiments, the astrocytes on the transwell supports were removed prior to treatments and imaging.
(§1) Mitochondrial membrane potentials (ΔΨs) was measured as previously described using the potential sensitive dye tetra-methyl rhodamine ethyl ester (TMRE, Molecular Probes, #T-669) (Lin and Lechleiter, 2002). Images were acquired with a 60× oil 1.4 NA objective on a Nikon PCM2000 confocal microscope custom adapted for two-photon imaging. A Ti-sapphire Coherent Mira 900 Laser pumped with a 5W Verdi laser (Coherent Inc., Santa Clara, Calif.) was used to excite TMRE at 800 nm A neutral-density filter wheel was used to attenuate the laser intensity so that no detectable photobleaching of TMRE was observed.
To investigate this, primary cultures of astrocytes were prepared from the brains of young (4-6 months) and old (26-28 months) mice and re-plated on glass coverslips prior to each imaging experiment as previously described. Seeded glass coverslips were then sealed in an open chamber (Bioptechs Delta T) and perfused at 37° C. with the potential sensitive dye tetramethyl rhodamine ethyl ester (TMRE, 200 nM, Molecular Probes/Invitrogen) to label astrocyte mitochondria. Mitochondrial membrane potentials (ΔΨs) were measured every 5 minutes using two-photon microscopy. Each image is a maximum intensity projection of a z-stack of six optical sections (1-μm steps). Scale bar is 10 μm. Plated cells were continuously perfused at 37° C. with culture medium containing TMRE (200 nM) and imaged with 2-photon microscopy (800 nm). Oxidative stress was applied to the cells in the perfusate with t-BuOOH (100 μM). Cell viability was then monitored by the collapse of ΔΨ (TMRE fluorescence) to 10% of its initial value. The time course of ΔΨ collapse is plotted for 3 astrocytes (A1, A2, A3) in each culture (FIGS. 1B and 2B). Fluorescent units are scaled to 100% at 0 hours. […]

[4] = tested on: astrocytes; experiment: Mitochondrial membrane potential ΔΨ estimated as log(Fmito/Fcyto) with TMRE; assay type: cell-based, mouse
Protocol: as §1
We confirmed this by directly measuring the effect of ATP, ATP plus XeC and IP3-BM treatments on ΔΨ. Cultured cells were labeled with TMRE (200 nM) and imaged with a two-photon microscope as described above. ΔΨ was estimated as the log (Fmito/Fcyto) where Fmito is the peak fluorescent intensity observed in single mitochondria (Farkas et al., 1989; Lin et al., 2005). The mean values of individual mitochondria from a single cell were used for the mitochondrial potential estimate. Fcyto represents the lowest value of TMRE fluorescence observed within the boundaries of the same cell. […] FIG. 5E depicts a histogram plot showing average mitochondrial membrane potentials before and after treatment. The mean resting ΔΨs for untreated (Buffer), ATP-treated, ATP plus XeC-treated and IP3-BM-treated were 1.84+0.01 (n=78 mitochondria, pooled from 2 experiments), 1.84+0.01 (n=85 mitochondria), 1.85+0.01 (n=80 mitochondria) and 1.86+0.01 (n=48 mitochondria), respectively. Astrocyte cultures were then exposed to their respective treatments and the same fields of mitochondria were imaged 10 minutes later.

[5] = tested on: Rose Bengal (RB)-induced cerebral infarcts in mouse cortex; experiment: RB-induced photothrombosis lesion size in parietal cortex of GFAP-GFP transgenic mice (confocal); assay type: in vivo; conditions: 24 and 48 hours post-ischemia; with versus without MRS2365
From the text: A precise clot in a blood vessel is induced using the photosensitive dye Rose Bengal (RB) in the mouse cortex. The blood vessels were simultaneously imaged by injecting the red fluorescent dye […] into the mouse circulation. The targeted blood vessel is illuminated by a 543-nm laser after tail vein injection of RB. RB is activated by the laser and interacts with molecular oxygen to form singlet oxygen, which is known to damage endothelial cells within the blood vessel, thereby triggering the natural clotting cascade and leading to formation of a clot. Pharmacological agents can be introduced at the time of photoactivation which also causes the breakdown of the blood-brain barrier.
The parietal cortex of GFAP-GFP transgenic mice was imaged using confocal microscopy and a 40×NA 0.8 or 10×NA 0.45 objective. The same region of the cortex was periodically imaged prior to RB injection, and 10, 20, 30, and 40 minutes post-RB injection. RB is impermeable to the BBB and is cleared quickly under physiological conditions.
The parietal cortex of GFAP-GFP transgenic mice was imaged using confocal microscopy and a 10×0.45 NA objective. […] The size of the lesion was calculated in Image J by tracing the region of the cortex that was void of GFP expressing astrocytes. […]

SMILES: CC(=O)OCC[N+](C)(C)C [ACh]
- cell death [1]: significantly higher

SMILES: CCCC(=O)OCOP(=O)(OCOC(=O)CCC)O[C@@H]1[C@H](O)[C@H](O)[C@@H](OP(=O)(OCOC(=O)CCC)OCOC(=O)CCC)[C@H](OP(=O)(OCOC(=O)CCC)OCOC(=O)CCC)[C@H]1O [IP3-BM, butyryloxymethyl ester of IP3]
- peak Ca2+ response ([2]; old astrocytes, IP3-BM 25 μM): 0.24±0.02
- peak Ca2+ response ([2]; young astrocytes, IP3-BM 25 μM): 0.34±0.02
- time until ΔΨ collapse ([3]; old astrocytes, IP3-BM 25 μM fifteen minutes): 6.32±0.35
- time until ΔΨ collapse ([3]; young astrocytes, IP3-BM 25 μM fifteen minutes): 6.82±0.32
- ΔΨ (log Fmito/Fcyto) after treatment ([4]; treating astrocytes for 10 minutes): 2.02±0.01

SMILES: CSc1nc(N)c2ncn([C@H]3[C@H](O)[C@H](O)[C@]4(COP(=O)(O)OP(=O)(O)O)C[C@H]34)c2n1 [MRS2365, N-methanocarba-2MeSADP]
- size of the lesion (cortex void of GFP expressing astrocytes) [5]: greatly reduces the size of the lesion

SMILES: C1CCC[C@H]2CCCN3CC[C@@H](CCCCCC[C@@H]4CCCN5CC[C@@H](CC1)O[C@@H]45)O[C@@H]23 [XeC, Xestospongin C]
- peak Ca2+ response ([2]; old astrocytes, XeC 25 μM 30 min pretreatment, then ATP 10 μM): 0.28±0.04
- Ca2+ response ([2]; old astrocytes, XeC 25 μM 30 min pretreatment): 0.13±0.01
- Ca2+ response ([2]; young astrocytes, XeC 25 μM 30 min pretreatment): 0.11±0.01
- average time until ΔΨ collapse ([3]; old astrocytes): 4.02 ± 0.18 h
- time until ΔΨ collapse ([3]; old astrocytes, XeC pretreatment + IP3-BM): 4.48±0.07
- average time until ΔΨ collapse ([3]; young astrocytes): 5.48 ± 0.22 h
- time until ΔΨ collapse ([3]; young astrocytes, XeC pretreatment + IP3-BM): 4.73±0.05
- ΔΨ (log Fmito/Fcyto) after treatment ([4]; pretreated with XeC and then exposed to ATP): 1.87±0.01
